# Data published in patent EP4692094A1 (Beijing Konruns Pharmaceutical Co., Ltd., priority 2023, dated 2024).
# Experiments:
# [1] = biological target: T1, KAT5 (Homo sapiens, UniProt Q92993); assay: Enzymatic activity assay for KAT5 acetyltransferase (TR-FRET, histone substrate H4); format: biochemical; conditions: KAT5 1.5 nM, H4 200 nM, AcCOA 2 µM
# T1 construct: purchased signalChem K314-380G
# Procedure: The acetylation effects of KAT6B on histone substrate H3, as well as KAT5, KAT7, and KAT8 on histone substrate H4, were determined using the TR-FRET (time-resolved fluorescence resonance energy transfer) method. The determination was performed according to experimental procedures similar to those in "Pharmacological Experiment I": 1.2 Preparation of compounds: The compounds prepared in the examples were each dissolved in dimethylsulfoxide to give solutions at a concentration of 10 mmol/L. • 1) The compounds in the examples were each diluted from 10 mmol/L stock solution to 0.2 mmol/L, i.e., 1 µL of the compound was added to 49 µL of DMSO, and 3-fold dilution was performed to give 10 concentrations. • 2) 50 nL of the test compounds were transferred to 384 reaction plates using Echo, two replicates for each compound, and the plates were centrifuged at a rotation speed of 1000 rpm for 1 min, the final concentration of dimethylsulfoxide (DMSO) being 0.5%. […]
# For KAT8: • 3) 2.5 µL of the KAT8 enzyme solution at a final concentration of 10 nM was added to the 384 reaction plates in step 2), and the plates were centrifuged at 1000 rpm for 1 min and incubated at 25 °C for 10 min. • 4) 2.5 µL of […] at a final concentration of 300 nM and an AcCOA (acetyl-CoA) reaction solution at a final concentration of 2 µM were added to the 384 reaction plates in step 3), and the plates were centrifuged at a rotation speed of 1000 rpm for 1 min and incubated at 25 °C for 90 min. • 5) 5 µL of Eu-Ab& Ulight-SA detection solution was separately added to the 384 reaction plates in step 4) of the 4 groups described above, and the plates were centrifuged at 1000 rpm for 1 min and incubated at 25 °C for 60 min. • 6) The HTRF […] signals were read using a BMG high-throughput drug-screening multi-mode microplate reader.
# The acetylation levels of the histones in the groups were analyzed by the GraphPad Prism 8 software. […]
# [2] = biological target: T2, CYP1A2 (Homo sapiens, UniProt P05177); assay: Inhibitory effect on P450 enzymes in vitro (human liver microsomes), CYP1A2; format: in vitro ADME; conditions: probe phenacetin, final concentration 10 µM, substrate phenacetin, read-out: % inhibition rate CYP1A2 (phenacetin)
# T2 construct: from tissue; host or cells: human liver microsomes
# T2 sequence (P05177 1-516): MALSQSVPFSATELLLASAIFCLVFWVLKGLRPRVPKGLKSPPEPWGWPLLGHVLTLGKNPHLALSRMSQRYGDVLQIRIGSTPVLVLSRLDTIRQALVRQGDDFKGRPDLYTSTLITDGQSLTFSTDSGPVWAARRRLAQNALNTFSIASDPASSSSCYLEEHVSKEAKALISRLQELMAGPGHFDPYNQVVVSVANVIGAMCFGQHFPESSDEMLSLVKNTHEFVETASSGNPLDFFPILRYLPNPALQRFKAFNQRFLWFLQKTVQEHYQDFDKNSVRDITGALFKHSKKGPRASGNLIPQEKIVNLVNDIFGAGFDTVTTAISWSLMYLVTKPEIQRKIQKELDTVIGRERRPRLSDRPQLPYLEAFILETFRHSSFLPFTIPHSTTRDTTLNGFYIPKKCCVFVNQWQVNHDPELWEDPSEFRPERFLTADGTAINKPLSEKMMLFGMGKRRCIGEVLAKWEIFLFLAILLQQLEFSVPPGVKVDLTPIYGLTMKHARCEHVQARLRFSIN
# Procedure: (§1) 1.1 Preparation of compounds: The compounds prepared in the examples were each dissolved in dimethylsulfoxide to give solutions at a concentration of 2 mmol/L.
# (§2) 1.2 Test methods: • 1) Incubation system: human liver microsomes, a MgCl2 solution, a phosphate buffer solution, and a substrate solution were each added a 96-well deep-well plate and mixed homogenously. In the final incubation system, the concentration of the human liver microsomes was 0.2 mg/mL, and the final concentrations of the MgCl2 solution and the phosphate buffer solution were 5 mM and 100 mM, respectively. • 2) 1 µL of the substrate solution was added to the incubation system, and the final concentrations of CYP1A2 phenacetin, 2C8 paclitaxel […], 2C19 mephenytoin, 2D6 midazolam, and 3A midazolam substrates were 40 µM (phenacetin), 5 µM (paclitaxel), 50 µM (mephenytoin), 10 µM (mephenytoin), 5 µM (midazolam), and 50 µM […], respectively. • 3) 1 µL of the example compound or vehicle (DMSO) was added to the incubation system, and the incubation system was pre-warmed for 5 min in a 37 °C water bath before starting the reaction with 20 µL of 10 mM NADPH solution.
# (§3) 1.3 Sample treatment: Within the designated time (20 min for phenacetin, 10 min for paclitaxel, 20 min for mephenytoin, 20 min for dextromethorphan, 5 min for midazolam, and 10 min for testosterone), 400 µL of methanol containing the internal standard was added to terminate the reaction, and the mixture was vortexed and mixed homogeneously. Then, the deep-well plate was centrifuged at 3220 g and 4 °C for 40 min. 100 µL of the supernatant was transferred into a new plate, and 150 µL of purified water was added. The mixture was mixed homogenously for LC-MS/MS analysis. Table 11. Inhibitory effects of some compounds in the examples on CYP enzymes
# [3] = biological target: T3, CYP2C19 (Homo sapiens, UniProt P33261); assay: Inhibitory effect on P450 enzymes in vitro (human liver microsomes), CYP2C19; format: in vitro ADME; conditions: probe mephenytoin, final concentration 10 µM, substrate mephenytoin, read-out: % inhibition rate CYP2C19 (mephenytoin)
# T3 construct: from tissue; host or cells: human liver microsomes
# Procedure: as §1, §2, §3
# T3 sequence (P33261 whole entry): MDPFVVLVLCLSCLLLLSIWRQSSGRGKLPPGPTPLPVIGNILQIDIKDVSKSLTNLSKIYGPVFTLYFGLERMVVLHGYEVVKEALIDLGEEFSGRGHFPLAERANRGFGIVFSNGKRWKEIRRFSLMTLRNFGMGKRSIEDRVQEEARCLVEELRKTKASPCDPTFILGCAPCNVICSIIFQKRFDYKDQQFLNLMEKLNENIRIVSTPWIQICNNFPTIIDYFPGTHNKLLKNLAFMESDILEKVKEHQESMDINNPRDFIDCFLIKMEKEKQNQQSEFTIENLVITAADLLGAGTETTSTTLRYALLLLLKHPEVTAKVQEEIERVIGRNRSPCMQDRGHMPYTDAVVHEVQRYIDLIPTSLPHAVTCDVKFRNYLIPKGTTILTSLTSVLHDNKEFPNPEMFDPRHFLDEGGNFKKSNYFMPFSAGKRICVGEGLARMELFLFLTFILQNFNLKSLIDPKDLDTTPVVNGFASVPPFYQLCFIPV
# T1 sequence (Q92993 whole entry): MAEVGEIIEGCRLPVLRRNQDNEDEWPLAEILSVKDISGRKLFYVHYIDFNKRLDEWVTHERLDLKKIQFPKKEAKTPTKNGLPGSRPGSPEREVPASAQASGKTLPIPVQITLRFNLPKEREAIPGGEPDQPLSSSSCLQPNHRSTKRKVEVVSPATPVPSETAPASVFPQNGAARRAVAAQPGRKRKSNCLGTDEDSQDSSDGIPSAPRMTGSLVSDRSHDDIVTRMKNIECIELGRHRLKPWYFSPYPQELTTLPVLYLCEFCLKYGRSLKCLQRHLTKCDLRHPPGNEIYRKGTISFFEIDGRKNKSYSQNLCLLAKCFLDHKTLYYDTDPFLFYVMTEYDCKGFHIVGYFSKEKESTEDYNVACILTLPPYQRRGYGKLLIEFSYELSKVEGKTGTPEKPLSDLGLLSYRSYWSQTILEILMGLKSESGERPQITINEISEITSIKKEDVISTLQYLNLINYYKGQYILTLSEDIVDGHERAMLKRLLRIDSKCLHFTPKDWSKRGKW
Compound,IC50 [1],"inhibition at 20 min, 10 µM [2]","inhibition at 20 min, 10 µM [3]"
"COc1ccc2ccoc2c1S(=O)(=O)Nc1noc2cc(Cn3cccn3)nc(OC)c12 [Example 10, N-(6-((1H-Pyrazol-1-yl)methyl)-4-methoxyisoxazolo[4,5-c]pyridin-3-yl)-6-methoxybenzofuran-7-sulfonamide]",66.4 nM,-1.78%,9.54%
"COc1cc2c(cc1S(=O)(=O)Nc1noc3cc(Cn4cccn4)nc(OC)c13)CCCC2 [Example 2, N-(6-((1H-Pyrazol-1-yl)methyl)-4-methoxyisoxazolo[4,5-c]pyridin-3-yl)-3-methoxy-5,6,7,8-tetrahydronaphthalene-2-sulfonamide]",219 nM,6.02%,42.8%
"COc1cc2c(cc1S(=O)(=O)Nc1noc3cc(Cn4cccn4)nc(OC)c13)OCC2 [Example 59, N-(6-((1H-Pyrazol-1-yl)methyl)-4-methoxyisoxazolo[4,5-c]pyridin-3-yl)-5-methoxy-2,3-dihydrobenzofuran-6-sulfonamide]",171 nM,1.93%,7.62%
